Test: Antiproliferative activity against mouse ASZ cells assessed as reduction in cell viability after 72 hrs by MTS/PMS assay
Format: functional

## CN(C)c1cccc(-c2ccc(C3C/C=C/CCC(=O)OCCCOC3=O)cc2)c1 (stereo not drawn)
  GI50: ≥ 75 µM

## O=C1CC/C=C/CC(c2ccc(-c3cccc(O)c3)cc2)C(=O)OCCCO1 (stereo not drawn)
  GI50: 12.1 µM

## O=C1CC/C=C/CC(c2ccc(-c3ccncc3)cc2)C(=O)OCCCO1 (stereo not drawn)
  GI50: ≥ 75 µM

## O=C1CC/C=C/CC(c2ccc(-c3cnn(Cc4ccccc4)c3)cc2)C(=O)OCCCO1 (stereo not drawn)
  GI50: ≥ 100 µM

## O=C1CC/C=C/CC(c2ccc(-c3ccccc3)cc2)C(=O)OCCCO1 (stereo not drawn)
  GI50: ≥ 100 µM

## COc1cc(-c2ccc(C3C/C=C/CCC(=O)OCCCOC3=O)cc2)c(OC)nn1 (stereo not drawn)
  GI50: 19.7 µM

## O=C1CC/C=C/CC(c2ccc(-c3cccnc3)cc2)C(=O)OCCCO1 (stereo not drawn)
  GI50: 40.9 µM

## Cc1noc(C)c1-c1ccc(C2C/C=C/CCC(=O)OCCCOC2=O)cc1 (stereo not drawn)
  GI50: ≥ 75 µM

Source: ChEMBL document CHEMBL4665873, “Exploring the physicochemical and antiproliferative properties of biaryl-linked [13]-macrodilactones” (2020)
